Here are results for 2 compounds from patent US9465025B2, “Stable neural stem cell lines” (Neuralstem, Inc., priority 1996, dated 2016).

Assay [1] addresses T1, endogenous full-length progesterone receptor (Homo sapiens, UniProt P06401).
T1 sequence (P06401 1-933): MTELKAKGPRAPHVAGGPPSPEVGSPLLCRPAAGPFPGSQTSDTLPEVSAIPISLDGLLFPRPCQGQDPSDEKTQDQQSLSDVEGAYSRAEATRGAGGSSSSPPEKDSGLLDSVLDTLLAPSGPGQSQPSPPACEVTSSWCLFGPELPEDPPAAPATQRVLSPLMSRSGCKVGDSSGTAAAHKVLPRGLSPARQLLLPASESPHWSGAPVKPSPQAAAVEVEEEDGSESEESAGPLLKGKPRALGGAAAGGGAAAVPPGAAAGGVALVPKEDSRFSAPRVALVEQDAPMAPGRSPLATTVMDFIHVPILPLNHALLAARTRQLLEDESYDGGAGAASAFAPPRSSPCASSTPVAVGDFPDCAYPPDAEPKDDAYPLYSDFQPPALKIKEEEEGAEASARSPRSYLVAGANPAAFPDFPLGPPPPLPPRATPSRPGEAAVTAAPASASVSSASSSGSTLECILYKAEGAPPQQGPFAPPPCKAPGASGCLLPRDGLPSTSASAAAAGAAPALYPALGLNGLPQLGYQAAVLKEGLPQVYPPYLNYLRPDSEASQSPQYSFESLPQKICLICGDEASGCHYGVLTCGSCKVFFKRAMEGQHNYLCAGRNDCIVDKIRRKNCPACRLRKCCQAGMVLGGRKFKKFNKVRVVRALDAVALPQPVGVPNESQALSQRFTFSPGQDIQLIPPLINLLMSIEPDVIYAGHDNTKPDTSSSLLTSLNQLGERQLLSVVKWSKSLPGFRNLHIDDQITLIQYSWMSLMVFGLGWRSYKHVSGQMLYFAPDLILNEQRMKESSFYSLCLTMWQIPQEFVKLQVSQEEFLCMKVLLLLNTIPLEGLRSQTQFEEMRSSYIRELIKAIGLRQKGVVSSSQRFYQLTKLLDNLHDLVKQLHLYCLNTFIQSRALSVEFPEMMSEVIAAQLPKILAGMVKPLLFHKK
The conditions noted are these: Wang et al. 1994; cited from earlier work.

A further assay concerns human CNS stem cells. Description: Mitotic rate (24-hour BrdU incorporation) and doubling time of human CNS stem cells with growth factors. The format is cell-based. As to conditions: N2 medium, factor supplied daily. The protocol: (§1) The doubling time for human CNS stem cells in N2 medium with bFGF as the sole mitogen is approximately 60 hours which is markedly slower than 24 hours for rat CNS stem cells under the identical culture conditions. This may be due to a species difference in certain cell-autonomous properties of the cells such as a difference in DNA replication rate or in other mitotic phases, G1 or G2, of the cell cycle. We investigated other factors to accelerate the mitotic rate of human CNS stem cells.
Many purified recombinant human growth factors were tested for the ability to enhance the mitogenic activity of bFGF. The mitotic rate of human CNS stem cells was assessed by measuring the proportion of the cells which have incorporated the mitotic label, bromodeoxyuridine (BrdU), during a 24-hour period. Each growth factor was supplied daily to the culture in addition to bFGF. Only the combination of bFGF+EGF and bFGF+TGFα (transforming growth factor-alpha) accelerated beyond the bFGF-induced mitotic rate of the human CNS stem cells. In both conditions, the doubling time of the cells […] 1.5 times to 40 hours over bFGF alone. Combination of bFGF and fetal bovine serum at 1% or at 10% also accelerated the BrdU-incorporation rate of bFGF-induced mitotic rate of CNS stem cells to a similar rate. • 2. Resistance of CNS Stem Cells Against Spontaneous Differentiation

In another assay the test system is rat CNS stem cells. As to the kind of experiment: Doubling time of rat CNS stem cells in N2 medium with bFGF. The conditions noted are these: bFGF as sole mitogen. The format is cell-based. As for the experimental part: as §1
Assay [2] deals with MycER-expressing CNS stem cells. Description: Growth of MycER-expressing human CNS stem cells in different mitogens. In kind it is cell-based. The protocol:
The same human CNS stem cell preparation was also subjected to MycER-retrovirus infection and grown in bFGF alone or in bFGF and EGF. […] As with the unmodified parent cells, the MycER cells also retained a 60 hour doubling time in bFGF alone. […] In the absence of MycER expression, the same three conditions yielded a similar pattern of growth, but with less stability.

With `CC#C[C@]1(O)CC[C@H]2[C@@H]3CCC4=CC(=O)CCC4=C3[C@@H](c3ccc(N(C)C)cc3)C[C@@]21C` [RU38486], in assay [1], the “activation of full-length receptor” value was “does not activate”.
Consider “bFGF: basic fibroblast growth factor, mitogen for CNS stem cells”, for which the doubling time result was “approximately 60 hours” in the assay with human CNS stem cells, 24 h in the assay with rat CNS stem cells and 60 h in assay [2].
